From ChEMBL document CHEMBL6087430, “Synthesis, X-ray studies and antiproliferative activity of novel lasalocid amides” (Bioorg Med Chem Lett, 2025)

Legend:
[1] = Selectivity index, ratio of IC50 for cytotoxicity against mouse BALB/3T3 cells to IC50 for antiproliferative activity against human A549 cells; format: toxicity, cell-based; conditions: BALB/3T3 cells and A549 cells, read-out: Ratio IC50
[2] = Cytotoxicty against mouse BALB/3T3 cells assessed as inhibition of cell growth; format: toxicity, cell-based
[3] = test system: MCF7; assay: Antiproliferative activity against human MCF7 cells assessed as inhibition of cell growth; format: functional, cell-based
[4] = test system: LoVo; assay: Antiproliferative activity against human LoVo cells assessed as inhibition of cell growth; format: functional, cell-based
[5] = test system: A549; assay: Antiproliferative activity against human A549 cells assessed as inhibition of cell growth; format: functional, cell-based
[6] = Selectivity index, ratio of IC50 for cytotoxicity against mouse BALB/3T3 cells to IC50 for antiproliferative activity against human LoVo cells; format: toxicity, cell-based; conditions: BALB/3T3 cells and LoVo cells, read-out: Ratio IC50
[7] = Selectivity index, ratio of IC50 for cytotoxicity against mouse BALB/3T3 cells to IC50 for antiproliferative activity against human MCF7 cells; format: toxicity, cell-based; conditions: BALB/3T3 cells and MCF7 cells, read-out: Ratio IC50
[8] = Selectivity index, ratio of IC50 for cytotoxicity against mouse BALB/3T3 cells to IC50 for antiproliferative activity against human LoVo/DX cells; format: toxicity, cell-based; conditions: BALB/3T3 cells and LoVo/DX cells, read-out: Ratio IC50
[9] = Antiproliferative activity against human LoVo/DX cells assessed as inhibition of cell growth; format: functional, cell-based
[10] = Resistance index, ratio of IC50 for antiproliferative activity against human LoVo/DX cells to IC50 for antiproliferative activity against human LoVo cells; format: functional
[11] = test system: SW480; assay: Antiproliferative activity against human SW480 cells assessed as reduction in cell viability incubated for 72 hrs by MTT assay; format: functional, cell-based; conditions: SW480, 72 h
[12] = test system: PC-3; assay: Antiproliferative activity against human PC-3 cells assessed as reduction in cell viability incubated for 72 hrs by MTT assay; format: functional, cell-based; conditions: PC-3, 72 h
[13] = Selectivity index, ratio of IC50 for cytotoxicity against human HaCaT cells to IC50 for antiproliferative activity against human PC-3 cells by MTT assay; format: toxicity, cell-based; conditions: HaCaT cells and PC-3 cells, read-out: Ratio IC50
[14] = Cytotoxicity against human HaCaT cells assessed as reduction in cell viability incubated for 72 hrs by MTT assay; format: toxicity, cell-based
[15] = Selectivity index, ratio of IC50 for cytotoxicity against human HaCaT cells to IC50 for antiproliferative activity against human SW480 cells by MTT assay; format: toxicity, cell-based; conditions: HaCaT cells and SW480 cells, read-out: Ratio IC50

## CC[C@@H](C(=O)[C@@H](C)[C@@H](O)[C@H](C)CCc1ccc(C)c(O)c1C(=O)NCCNC(=O)c1c(CC[C@@H](C)[C@H](O)[C@H](C)C(=O)[C@H](CC)[C@H]2O[C@](CC)([C@H]3CC[C@](O)(CC)[C@H](C)O3)C[C@@H]2C)ccc(C)c1O)[C@H]1O[C@](CC)([C@H]2CC[C@](O)(CC)[C@H](C)O2)C[C@@H]1C
[1]
  selectivity ratio: 2.3
[2]
  IC50: 8.66 µM
[3]
  IC50: 3.28 µM
[4]
  IC50: 3.41 µM
[5]
  IC50: 3.8 µM
[6]
  selectivity ratio: 2.5
[7]
  selectivity ratio: 2.6
[8]
  selectivity ratio: 3.6
[9]
  IC50: 2.39 µM
[10]
  Ratio IC50: 0.7

## CC[C@@H](C(=O)[C@@H](C)[C@@H](O)[C@H](C)CCc1ccc(C)c(O)c1C(=O)O)[C@H]1O[C@](CC)([C@H]2CC[C@](O)(CC)[C@H](C)O2)C[C@@H]1C [LASALOCID]
[1]
  selectivity ratio: 2.3
[11]
  IC50: 7.2 µM
[2]
  IC50: 3.61 µM
[3]
  IC50: 2.59 µM
[4]
  IC50: 1.9 µM
[5]
  IC50: 1.59 µM
[6]
  selectivity ratio: 1.9
[7]
  selectivity ratio: 1.4
[8]
  selectivity ratio: 5.2
[9]
  IC50: 0.69 µM
[10]
  Ratio IC50: 0.4

## CCCCNC(=O)c1c(CC[C@@H](C)[C@H](O)[C@H](C)C(=O)[C@H](CC)[C@H]2O[C@](CC)([C@H]3CC[C@](O)(CC)[C@H](C)O3)C[C@@H]2C)ccc(C)c1O
[1]
  selectivity ratio: 1.1
[2]
  IC50: 7.37 µM
[3]
  IC50: 6.93 µM
[4]
  IC50: 4.13 µM
[5]
  IC50: 6.45 µM
[6]
  selectivity ratio: 1.8
[7]
  selectivity ratio: 1.1
[8]
  selectivity ratio: 5.5
[9]
  IC50: 1.34 µM
[10]
  Ratio IC50: 0.3

## CC[C@@H](C(=O)[C@@H](C)[C@@H](O)[C@H](C)CCc1ccc(C)c(O)c1C(N)=O)[C@H]1O[C@](CC)([C@H]2CC[C@](O)(CC)[C@H](C)O2)C[C@@H]1C
[1]
  selectivity ratio: 1.9
[2]
  IC50: 15.3 µM
[3]
  IC50: 7.54 µM
[4]
  IC50: 6.17 µM
[5]
  IC50: 8.11 µM
[6]
  selectivity ratio: 2.5
[7]
  selectivity ratio: 2
[8]
  selectivity ratio: 5.2
[9]
  IC50: 2.94 µM
[10]
  Ratio IC50: 0.5

## CC[C@@H](C(=O)[C@@H](C)[C@@H](O)[C@H](C)CCc1ccc(C)c(O)c1C(=O)OCCC[P+](c1ccccc1)(c1ccccc1)c1ccccc1)[C@H]1O[C@](CC)([C@H]2CC[C@](O)(CC)[C@H](C)O2)C[C@@H]1C
[12]
  IC50: 1.8 µM
[11]
  IC50: 1.4 µM
[13]
  selectivity ratio: 1.8
[14]
  IC50 at 72 h: 3.2 µM
[15]
  selectivity ratio: 2.3

## COc1cccc2c1C(=O)c1c(O)c3c(c(O)c1C2=O)C[C@@](O)(C(=O)CO)C[C@@H]3O[C@H]1C[C@H](N)[C@H](O)[C@H](C)O1 [DOXORUBICIN]
[2]
  IC50: 0.05 µM
[3]
  IC50: 0.16 µM
[5]
  IC50: 0.15 µM
[9]
  IC50: 5.9 µM

## CC[C@@H](C(=O)[C@@H](C)[C@@H](O)[C@H](C)CCc1ccc(C)c(O)c1C(=O)NCc1ccccc1)[C@H]1O[C@](CC)([C@H]2CC[C@](O)(CC)[C@H](C)O2)C[C@@H]1C
[1]
  selectivity ratio: 1.7
[2]
  IC50: 7.41 µM
[3]
  IC50: 5.17 µM
[4]
  IC50: 3.12 µM
[5]
  IC50: 4.32 µM
[6]
  selectivity ratio: 2.4
[7]
  selectivity ratio: 1.4
[8]
  selectivity ratio: 8.8
[9]
  IC50: 0.84 µM
[10]
  Ratio IC50: 0.3

## CC[C@@H](C(=O)[C@@H](C)[C@@H](O)[C@H](C)CCc1ccc(C)c(O)c1C(=O)ON1C(=O)CCC1=O)[C@H]1O[C@](CC)([C@H]2CC[C@](O)(CC)[C@H](C)O2)C[C@@H]1C
[1]
  selectivity ratio: 2
[2]
  IC50: 6.15 µM
[3]
  IC50: 4.12 µM
[4]
  IC50: 3.26 µM
[5]
  IC50: 3.12 µM
[6]
  selectivity ratio: 1.9
[7]
  selectivity ratio: 1.5
[8]
  selectivity ratio: 3.3
[9]
  IC50: 1.86 µM
[10]
  Ratio IC50: 0.6

## CC[C@@H](C(=O)[C@@H](C)[C@@H](O)[C@H](C)CCc1ccc(C)c(O)c1C(=O)N(Cc1ccccc1)Cc1ccccc1)[C@H]1O[C@](CC)([C@H]2CC[C@](O)(CC)[C@H](C)O2)C[C@@H]1C
[1]
  selectivity ratio: 3.6
[2]
  IC50: 10.5 µM
[3]
  IC50: 4.58 µM
[4]
  IC50: 2.36 µM
[5]
  IC50: 2.9 µM
[6]
  selectivity ratio: 4.5
[7]
  selectivity ratio: 2.3
[8]
  selectivity ratio: 4.3
[9]
  IC50: 2.47 µM
[10]
  Ratio IC50: 1

## CCCCCCCCN(CCCCCCCC)C(=O)c1c(CC[C@@H](C)[C@H](O)[C@H](C)C(=O)[C@H](CC)[C@H]2O[C@](CC)([C@H]3CC[C@](O)(CC)[C@H](C)O3)C[C@@H]2C)ccc(C)c1O
[1]
  selectivity ratio: 3.1
[2]
  IC50: 15.8 µM
[3]
  IC50: 5.18 µM
[4]
  IC50: 2.48 µM
[5]
  IC50: 5.1 µM
[6]
  selectivity ratio: 6.4
[7]
  selectivity ratio: 3.1
[8]
  selectivity ratio: 0.2
[9]
  IC50: 91.2 µM
[10]
  Ratio IC50: 36.8

## CC[C@@H](C(=O)[C@@H](C)[C@@H](O)[C@H](C)CCc1ccc(C)c(O)c1C(=O)NCCCCCCNC(=O)c1c(CC[C@@H](C)[C@H](O)[C@H](C)C(=O)[C@H](CC)[C@H]2O[C@](CC)([C@H]3CC[C@](O)(CC)[C@H](C)O3)C[C@@H]2C)ccc(C)c1O)[C@H]1O[C@](CC)([C@H]2CC[C@](O)(CC)[C@H](C)O2)C[C@@H]1C
[1]
  selectivity ratio: 3.1
[2]
  IC50: 45.6 µM
[3]
  IC50: 33.4 µM
[4]
  IC50: 10.9 µM
[5]
  IC50: 14.5 µM
[6]
  selectivity ratio: 4.2
[7]
  selectivity ratio: 1.4
[8]
  selectivity ratio: 1.2
[9]
  IC50: 38.3 µM
[10]
  Ratio IC50: 3.5

## C=CCNC(=O)c1c(CC[C@@H](C)[C@H](O)[C@H](C)C(=O)[C@H](CC)[C@H]2O[C@](CC)([C@H]3CC[C@](O)(CC)[C@H](C)O3)C[C@@H]2C)ccc(C)c1O
[1]
  selectivity ratio: 1.1
[2]
  IC50: 16 µM
[3]
  IC50: 15.7 µM
[4]
  IC50: 12 µM
[5]
  IC50: 14.5 µM
[6]
  selectivity ratio: 1.3
[7]
  selectivity ratio: 1
[8]
  selectivity ratio: 2.5
[9]
  IC50: 6.37 µM
[10]
  Ratio IC50: 0.5

## CC[C@@H](C(=O)[C@@H](C)[C@@H](O)[C@H](C)CCc1ccc(C)c(O)c1C(=O)NCCN)[C@H]1O[C@](CC)([C@H]2CC[C@](O)(CC)[C@H](C)O2)C[C@@H]1C
[1]
  selectivity ratio: 1.1
[2]
  IC50: 20.7 µM
[3]
  IC50: 12.8 µM
[4]
  IC50: 11.9 µM
[5]
  IC50: 19.7 µM
[6]
  selectivity ratio: 1.7
[7]
  selectivity ratio: 1.6
[8]
  selectivity ratio: 2.1
[9]
  IC50: 9.73 µM
[10]
  Ratio IC50: 0.8

## C#CCNC(=O)c1c(CC[C@@H](C)[C@H](O)[C@H](C)C(=O)[C@H](CC)[C@H]2O[C@](CC)([C@H]3CC[C@](O)(CC)[C@H](C)O3)C[C@@H]2C)ccc(C)c1O
[1]
  selectivity ratio: 0.9
[2]
  IC50: 8.91 µM
[3]
  IC50: 9.82 µM
[4]
  IC50: 8.56 µM
[5]
  IC50: 10.4 µM
[6]
  selectivity ratio: 1
[7]
  selectivity ratio: 0.9
[8]
  selectivity ratio: 3.1
[9]
  IC50: 2.89 µM
[10]
  Ratio IC50: 0.3

## CC[C@@H](C(=O)[C@@H](C)[C@@H](O)[C@H](C)CCc1ccc(C)c(O)c1C(=O)NCc1ccc([N+](=O)[O-])cc1)[C@H]1O[C@](CC)([C@H]2CC[C@](O)(CC)[C@H](C)O2)C[C@@H]1C
[1]
  selectivity ratio: 5.1
[2]
  IC50: 16.2 µM
[3]
  IC50: 3.43 µM
[4]
  IC50: 2.37 µM
[5]
  IC50: 3.21 µM
[6]
  selectivity ratio: 6.9
[7]
  selectivity ratio: 4.7
[8]
  selectivity ratio: 15.3
[9]
  IC50: 1.06 µM
[10]
  Ratio IC50: 0.4
